These results are taken from patent publication US20250230193A1, “CYCLIC COMPOUND HAVING SELECTIVE KRAS INHIBITORY EFFECT ON HRAS AND NRAS” (CHUGAI SEIYAKU KABUSHIKI KAISHA, priority 2022, published 2025).

The target of test [1] is GDP-bound NRAS wild-type protein (Homo sapiens, UniProt P01111). The experiment in a line: Binding to NRAS by surface plasmon resonance (SPR), Single Cycle Kinetics.
Test [2] has as its target GDP-bound HRAS wild-type protein (Homo sapiens, UniProt P01112). The experiment in a line: Binding to HRAS by surface plasmon resonance (SPR), Single Cycle Kinetics. (Surface plasmon resonance follows binding to a sensor surface in real time, without labels.)
Setting [3] is: SPR, GDP-bound wild-type proteins.
Setting [4] is: KD ratio, GDP-bound NRAS wild-type vs GDP-bound KRAS wild-type, SPR.
[5] abbreviates: KD ratio, GDP-bound HRAS wild-type vs GDP-bound KRAS wild-type, SPR.

Where a SMILES comes first, the peptide text is derived from it. Bridges are numbered along the chain shown (N, C = ends). [ ]: non-standard residue; d: D form. The star is where a group is joined. hPhe(3-Cl-4-CF3) = N[C@@H](CCc1ccc(C(F)(F)F)c(Cl)c1)C(=O)O; NPrPhe(4-CF3) = CCCN[C@@H](Cc1ccc(C(F)(F)F)cc1)C(=O)O; Piperazinyl(4-(3-oxetanyl)) = C1OCC1N1CCN(*)CC1; NMeGly(cPent) = CN[C@H](C(=O)O)C1CCCC1; NMeGly(cBu) = CN[C@H](C(=O)O)C1CCC1; NMeD = CN[C@@H](CC(=O)O)C(=O)O; NMeL = CN[C@@H](CC(C)C)C(=O)O; Pip = O=C(O)[C@@H]1CCCCN1; Morpholide = C1CN(*)CCO1; NMeA = CN[C@@H](C)C(=O)O; Ac5c = NC1(C(=O)O)CCCC1; Aze = O=C(O)[C@@H]1CCN1; Ac4c = NC1(C(=O)O)CCC1; NEtG = CCNCC(=O)O; Sar = CNCC(=O)O

GDP-bound NRAS wild-type protein, sequence (P01111 whole entry): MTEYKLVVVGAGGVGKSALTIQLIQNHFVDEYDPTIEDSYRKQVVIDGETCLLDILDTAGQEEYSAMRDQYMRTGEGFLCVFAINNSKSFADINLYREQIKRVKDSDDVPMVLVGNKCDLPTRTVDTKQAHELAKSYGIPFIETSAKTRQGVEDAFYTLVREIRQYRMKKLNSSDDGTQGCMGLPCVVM
GDP-bound HRAS wild-type protein, sequence (P01112 whole entry): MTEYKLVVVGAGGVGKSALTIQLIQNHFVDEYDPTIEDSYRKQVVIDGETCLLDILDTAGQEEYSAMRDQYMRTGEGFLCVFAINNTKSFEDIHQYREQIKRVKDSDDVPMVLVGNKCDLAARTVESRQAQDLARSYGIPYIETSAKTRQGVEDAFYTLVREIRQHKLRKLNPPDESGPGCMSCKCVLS

`CC[C@H](C)[C@@H]1NC(=O)[C@@H]2CCCCCc3ccc(cc3)C[C@@H](C(=O)N(C)CC(=O)N[C@@H](CCc3ccc(C(F)(F)F)c(OC)c3)C(=O)N3CC4(CC4)C[C@H]3C(=O)NC3(CC(C)(C)C3)C(=O)N(C)[C@@H](C3CCCC3)C(=O)N(C)[C@H](C(=O)N(C)C)CC(=O)N2C)N2CC/C=C\C[C@@H](C2=O)N(C)C(=O)CN(C)C1=O` [PP3074]: the “NRAS/KRAS (ratio of KD value with respect to GDP-bound NRAS wild-type protein to KD value with respect to KRAS)” value in test [1] (setting [3]) was “A (a compound having 10 or more and less than 20 is denoted as A)”. The “HRAS/KRAS (ratio of KD value with respect to GDP-bound HRAS wild-type protein to KD value with respect to KRAS)” value in test [2] (setting [3]) was “A (a compound having 10 or more and less than 20 is denoted as A)”.

On to `CCCN1C(=O)CN(C)C(=O)CN(CC)C(=O)[C@H]([C@@H](C)CC)NC(=O)[C@H](CC(C)C)N(C)C(=O)C[C@@H](C(=O)N2CCOCC2)N(C)C(=O)[C@H](C2CCCC2)N(C)C(=O)C2(CCCC2)NC(=O)[C@@H]2CCCCN2C(=O)[C@H](CCc2ccc(C(F)(F)F)c(Cl)c2)NC(=O)CN(C)C(=O)[C@@H]1Cc1ccc(C(F)(F)F)cc1` [PP0297] ([NMeL]I[NEtG][Sar][NPrPhe(4-CF3)][Sar][hPhe(3-Cl-4-CF3)][Pip][Ac5c][NMeGly(cPent)][NMeD]-Morpholide; lactam N-11), for which, in test [1] (SPR), the “NRAS/KRAS (ratio of KD for GDP-bound NRAS wild-type to KD for KRAS)” value is “B (a compound having 3 or more and less than 10 is denoted as B)”. Besides, the “HRAS/KRAS (ratio of KD for GDP-bound HRAS wild-type to KD for KRAS)” value in test [2] (SPR) was “C (A compound having a KD ratio of 0.1 or more and less than 3 is denoted as C)”.

As to `CCO[C@@H]1C[C@H]2C(=O)NC3(CCC3)C(=O)N(C)[C@@H](C3CCCC3)C(=O)N(C)[C@H](C(=O)N(C)C)CC(=O)N(C)[C@@H](Cc3ccc(Cl)c(Cl)c3)C(=O)N[C@@H]([C@@H](C)CC)C(=O)N(C)CC(=O)N(C)[C@H]3CCCCCN(C3=O)[C@@H](Cc3ccc(C(F)(F)F)cc3)C(=O)N(C)CC(=O)N[C@@H](CCc3cc(F)c(C(F)(F)F)c(F)c3)C(=O)N2C1` [PP1174], in test [1] (setting [4]), the “NRAS/KRAS (ratio of KD value with respect to NRAS to KD value with respect to KRAS)” value was “B (a compound having 3 or more and less than 10 is denoted as B)”. Further, in test [2] (setting [5]), the “HRAS/KRAS (ratio of KD value with respect to HRAS to KD value with respect to KRAS)” value was “B (a compound having 3 or more and less than 10 is denoted as B)”.

In the case of `CCO[C@@H]1C[C@H]2C(=O)NC3(CCC3)C(=O)N(C)[C@@H](C3CCCC3)C(=O)N(C)[C@H](C(=O)N(C)CC)CC(=O)N(C)[C@@H](CC3CC3)C(=O)N[C@@H]([C@@H](C)CC)C(=O)N(C)CC(=O)N(C)[C@H]3C/C=C\CCN(C3=O)[C@@H](Cc3ccc(C)cc3)C(=O)N(C)CC(=O)N[C@@H](CCc3ccc(C(F)(F)F)c(OC)c3)C(=O)N2C1` [PP1879], in test [1] (setting [4]), the “NRAS/KRAS (ratio of KD value for NRAS to KD value for KRAS)” value was “A (a compound having 10 or more and less than 20 is denoted as A)”. In test [2] (setting [5]), the “HRAS/KRAS (ratio of KD value for HRAS to KD value for KRAS)” value is “B (a compound having 3 or more and less than 10 is denoted as B)”.

On to `CCCN1C(=O)[C@@H]2CCN2C(=O)[C@H](C)N(C)C(=O)[C@H]([C@@H](C)CC)NC(=O)[C@H](C2CCC2)N(C)C(=O)C[C@@H](C(=O)N2CCOCC2)N(C)C(=O)[C@H](C2CCCC2)N(C)C(=O)C2(CCCC2)NC(=O)[C@@H]2CCCN2C(=O)[C@H](CCc2ccc(C(F)(F)F)c(Cl)c2)NC(=O)CN(C)C(=O)[C@@H]1Cc1ccc(C(F)(F)F)cc1` [PP0192] ([NMeGly(cBu)]I[NMeA][Aze][NPrPhe(4-CF3)][Sar][hPhe(3-Cl-4-CF3)]P[Ac5c][NMeGly(cPent)][NMeD]-Morpholide; lactam N-11), for which the “NRAS/KRAS (ratio of KD for GDP-bound NRAS wild-type to KD for KRAS)” value in test [1] (SPR) was “C (A compound having a KD ratio of 0.1 or more and less than 3 is denoted as C)”. Further, the “HRAS/KRAS (ratio of KD for GDP-bound HRAS wild-type to KD for KRAS)” value in test [2] (SPR) is “B (a compound having 3 or more and less than 10 is denoted as B)”.

`CCCN1C(=O)CN(C)C(=O)CNC(=O)[C@H]([C@@H](C)CC)NC(=O)[C@H](CC(C)C)N(C)C(=O)C[C@@H](C(=O)N(C)C)NC(=O)[C@H](C2CCCC2)N(C)C(=O)C2(CCC2)NC(=O)[C@@H]2CCCN2C(=O)[C@H](CCc2ccc(C(F)(F)F)c(Cl)c2)NC(=O)CN(C)C(=O)[C@@H]1Cc1ccc(C(F)(F)F)cc1` [PP0362] ([NMeL]IG[Sar][NPrPhe(4-CF3)][Sar][hPhe(3-Cl-4-CF3)]P[Ac4c][NMeGly(cPent)]D-NMe2; lactam N-11): the “NRAS/KRAS (ratio of KD for GDP-bound NRAS wild-type to KD for KRAS)” value in test [1] (SPR) is “B (a compound having 3 or more and less than 10 is denoted as B)”. Also, the “HRAS/KRAS (ratio of KD for GDP-bound HRAS wild-type to KD for KRAS)” value in test [2] (SPR) was “B (a compound having 3 or more and less than 10 is denoted as B)”.

With `CC[C@H](C)[C@@H]1NC(=O)[C@H](COC)N(C)C(=O)C[C@@H](C(=O)N(C)C)N(C)C(=O)[C@H](C2CCCCC2)N(C)C(=O)C2(CC(C)(C)C2)NC(=O)[C@@H]2C[C@@H](OC3CCCC3)CN2C(=O)[C@H](CCc2cc(F)c(C(F)(F)F)c(F)c2)NC(=O)CN(C)C(=O)[C@H](Cc2ccc(C(F)(F)F)cc2)N2CC/C=C\C[C@@H](C2=O)N(C)C(=O)CN(C)C1=O` [PP2656], in test [1] (class symbols), the “NRAS/KRAS (ratio of KD value with respect to GDP-bound NRAS wild-type protein to KD value with respect to KRAS)” value is “A (a compound having 10 or more and less than 20 is denoted as A)”. In addition, in test [2] (class symbols), the “HRAS/KRAS (ratio of KD value with respect to GDP-bound HRAS wild-type protein to KD value with respect to KRAS)” value was “B (a compound having 3 or more and less than 10 is denoted as B)”.

In the case of `CCO[C@@H]1C[C@H]2C(=O)NC3(CC=CC3)C(=O)N(C)[C@@H](C3CCCC3)C(=O)N(C)[C@H](C(=O)N3CCOCC3)CC(=O)N(C)[C@@H](CC(C)C)C(=O)N[C@@H]([C@@H](C)CC)C(=O)N(C)CC(=O)N(C)[C@H]3CCCCCN(C3=O)[C@@H](Cc3ccc(C(F)(F)F)cc3)C(=O)N(C)CC(=O)N[C@@H](CCc3cc(F)c(C(F)(F)F)c(F)c3)C(=O)N2C1` [PP0727], the “NRAS/KRAS (ratio of KD value with respect to GDP-bound NRAS wild-type protein to KD value with respect to KRAS)” value in test [1] (SPR) was “B (a compound having 3 or more and less than 10 is denoted as B)”. In addition, the “HRAS/KRAS (ratio of KD value with respect to GDP-bound HRAS wild-type protein to KD value with respect to KRAS)” value in test [2] (SPR) was “B (a compound having 3 or more and less than 10 is denoted as B)”.

Take `CC[C@H](C)[C@@H]1NC(=O)[C@H](CC(C)C)N(C)C(=O)C[C@@H](C(=O)N2CCOCC2)N(C)C(=O)[C@H](C2CCCC2)N(C)C(=O)C2(CCCC2)NC(=O)[C@@H]2CCCN2C(=O)[C@H](CCc2ccc(C(F)(F)F)c(Cl)c2)NC(=O)CN(C)C(=O)[C@H](Cc2ccc(OC)cc2)N2CCCC[C@@H](C2=O)N(C)C(=O)CN(C)C1=O` [PP0534]: the “NRAS/KRAS (ratio of KD value with respect to GDP-bound NRAS wild-type protein to KD value with respect to KRAS)” value in test [1] (SPR) is “B (a compound having 3 or more and less than 10 is denoted as B)”. In test [2] (SPR), the “HRAS/KRAS (ratio of KD value with respect to GDP-bound HRAS wild-type protein to KD value with respect to KRAS)” value is “B (a compound having 3 or more and less than 10 is denoted as B)”.

Regarding `CCCN1C(=O)CN(C)C(=O)CN(C)C(=O)[C@H]([C@@H](C)CC)NC(=O)[C@H](CC(C)C)N(C)C(=O)C[C@@H](C(=O)N2CCN(C3COC3)CC2)N(C)C(=O)[C@H](C2CCCC2)N(C)C(=O)C2(CCCC2)NC(=O)[C@@H]2CCCN2C(=O)[C@H](CCc2ccc(C(F)(F)F)c(Cl)c2)NC(=O)CN(C)C(=O)[C@@H]1Cc1ccc(C(F)(F)F)cc1` [PP0175] ([NMeL]I[Sar][Sar][NPrPhe(4-CF3)][Sar][hPhe(3-Cl-4-CF3)]P[Ac5c][NMeGly(cPent)][NMeD]-{Piperazinyl(4-(3-oxetanyl))}; lactam N-11), the “NRAS/KRAS (ratio of KD for GDP-bound NRAS wild-type to KD for KRAS)” value in test [1] (SPR) is “B (a compound having 3 or more and less than 10 is denoted as B)”. In addition, in test [2] (SPR), the “HRAS/KRAS (ratio of KD for GDP-bound HRAS wild-type to KD for KRAS)” value is “B (a compound having 3 or more and less than 10 is denoted as B)”.
